Consider 64 molecules from the supplement of paper PMC7801607.

This assay has as its system Plasmodium falciparum Dd2 asexual blood stage.
For orientation: IC50 means the point on the concentration scale where inhibition reaches its midpoint. A lower IC50 goes with greater potency. Regarding `Cc1cc(NS(=O)(=O)c2ccc(-c3ccc(F)cc3F)cc2)no1`, the IC50 was > 5 µM.

In the case of `Cc1cc(C)n2nc(C(=O)NS(=O)(=O)c3c(C)cccc3OC(F)(F)F)nc2n1`, the half-inhibitory concentration (IC50) was > 5 µM.

Take `CC(C)(C)OC(=O)NCc1ccc(C(=O)N[C@H]2CCOC2=O)cc1`: the IC50 was > 5 µM.

Take `CCOC(=O)/C=C/[C@H](C[C@@H]1CCNC1=O)NC(=O)[C@@H](CC(=O)[C@@H](NC(=O)c1cc(C)on1)C(C)C)Cc1ccc(F)cc1`: the IC50 was > 5 µM.

On to `CN(C/C=C/C#CC(C)(C)C)Cc1cccc2ccccc12`, for which the IC50 was > 5 µM.

`NC(=O)c1nccn([C@@H]2O[C@H](CO)[C@@H](O)[C@H]2O)c1=O`: the IC50 was > 5 µM.

As to `O=C(NCc1ncc(C(F)(F)F)cc1Cl)c1c(Cl)cccc1Cl`, the IC50 was > 5 µM.

Regarding `O=C(NC(=O)N1CCCc2ccccc21)c1ccc(Cl)cc1Cl`, the IC50 was > 5 µM.

Regarding `CC[C@@H]1C(=O)OC[C@@H]1Cc1cncn1C`, the IC50 was > 5 µM.

With `Nc1nc(O)ncc1F`, the IC50 was > 5 µM.

Take `C[C@@H](NC(=O)c1ccccc1-c1ccccc1)B(O)O`: the half-inhibitory concentration (IC50) is > 5 µM.

For `COc1cc(C2C3=C(CC(C)(C)CC3=O)Nc3ccccc3N2C(C)=O)ccc1OCc1ccccc1` (centres undefined), the IC50 is > 5 µM.

`O=C(NC12CC3CC(CC(C3)C1)C2)c1cc2ccccc2[nH]1`: the concentration for half-maximal inhibition (IC50) is > 5 µM.

In the case of `COc1ccc(COc2cc3oc(=O)c4cc(C(C)O)ccc4c3cc2OC)cc1` (centres undefined), the IC50 was > 5 µM.

With `c1cc(CN2CCCNCCNCCCNCC2)ccc1CN1CCCNCCNCCCNCC1`, the IC50 was > 5 µM.

Turning to `CC1(C)Cc2c(C#N)c(SCCc3ccccc3)nc(N3CCOCC3)c2CO1`, the IC50 was > 5 µM.

With `CC[N+]1(C/C2=C/CCCCCC2)CCC(NC(=O)C2c3cc(Cl)ccc3Oc3ccc(Cl)cc32)CC1` (centres undefined), the IC50 was > 5 µM.

Regarding `Cc1c(CN(C)C(=O)/C=C/c2cnc3c(c2)C(C)(C)C(=O)N3)oc2ccccc12`, the IC50 was > 5 µM.

As for `O=C(c1nc2c(C(F)(F)F)cc(C3CC3)cn2c1Cl)N1CCN([C@H]2CC[C@H](O)CC2)C(=O)C1`, the IC50 was > 5 µM.

As to `O=C(CCc1ccc2c(c1)OCO2)NCc1ccc(-c2ccccc2F)cc1`, the half-inhibitory concentration (IC50) is > 5 µM.

In the case of `Nc1nc2c(Cc3cccnc3)c[nH]c2c(=O)[nH]1`, the IC50 is > 5 µM.

For the molecule `O=C(CSc1nnc(Br)n1-c1ccc(C2CC2)c2ccccc12)Nc1ccc(C(=O)O)cc1Cl`, the IC50 is > 5 µM.

For the molecule `NCc1ccc(S(N)(=O)=O)cc1`, the IC50 was > 5 µM.

Consider `CCc1cc(Nc2cc(=O)n(CCN3CCN(C(=O)c4ccccc4)CC3)c(=O)[nH]2)ccc1C`, for which the IC50 is > 5 µM.

Regarding `CC(C)(C)c1ccc(OCCn2nc(C(=O)O)c3ccccc3c2=O)cc1`, the IC50 is > 5 µM.

As for `CC(C)CCN1C(=O)C(C2=NS(=O)(=O)c3cc(NS(C)(=O)=O)ccc3N2)=C(O)[C@@H]2[C@H]3CC[C@H](C3)[C@@H]21`, the IC50 was > 5 µM.

With `CC(C)(C)c1ccc(C(Cn2cccc(C(F)(F)F)c2=O)NC2Cc3ccccc3C2)cc1` (centres undefined), the IC50 is 4.6 µM.

Turning to `COC(=O)Nc1nc2cc(S(=O)c3ccccc3)ccc2[nH]1` (centres undefined), the IC50 is > 5 µM.

Turning to `C[C@H](c1cccc2ccccc12)N(C)Cc1ccccc1`, the IC50 was > 5 µM.

`CCC(C)n1ncn(-c2ccc(N3CCN(c4ccc(OCC5COC(Cn6cncn6)(c6ccc(Cl)cc6Cl)O5)cc4)CC3)cc2)c1=O` (centres undefined): the IC50 stood at 4.35 µM.

As to `O=S(=O)(NCB(O)O)c1ccc(-c2nnn[nH]2)cc1C(F)(F)F`, the IC50 is > 5 µM.

Take `CCOC(=O)/C=C/[C@H](C[C@@H]1CCNC1=O)NC(=O)[C@H](CC)n1cccc(NC(=O)c2cc(C)on2)c1=O`: the IC50 is > 5 µM.

In the case of `O=C(c1ccc(F)cc1)N1CCN2C(=O)c3ccccc3C12c1ccccc1` (centres undefined), the concentration for half-maximal inhibition (IC50) was > 5 µM.

`COc1ccc(C)cc1NC(=O)c1ccc(S(=O)(=O)N2CCCCC2)cc1`: the half-inhibitory concentration (IC50) is > 5 µM.

Regarding `NC[C@H]1O[C@H](O[C@H]2[C@H](O)[C@@H](O[C@H]3O[C@H](CO)[C@@H](O)[C@H](N)[C@H]3O)[C@H](N)C[C@@H]2N)[C@H](N)C[C@@H]1O`, the IC50 is > 5 µM.

In the case of `CCc1ccccc1OCCN1CCCCCC1`, the IC50 was > 5 µM.

Consider `Clc1cccc(-c2nnc(-c3ccccc3)o2)c1`, for which the IC50 was > 5 µM.

In the case of `N[C@@H]1CN(c2c(F)cc3c(=O)c(C(=O)O)cn([C@@H]4C[C@@H]4F)c3c2Cl)CC12CC2`, the IC50 is > 5 µM.

For `O=C(NNC(=S)Nc1ccc(Cl)cc1)c1ccncc1`, the IC50 is > 5 µM.

Consider `COc1ccc(NS(=O)(=O)c2ccc(Cl)s2)cn1`, for which the IC50 is > 5 µM.

Turning to `CCOC(=O)N[C@@H]1CC[C@@H]2[C@@H](C1)C[C@H]1C(=O)O[C@H](C)[C@H]1[C@H]2/C=C/c1ccc(-c2cccc(F)c2)cn1`, the IC50 was > 5 µM.

Regarding `CN(C)CCNC(=O)c1cccc2cccnc12`, the IC50 was > 5 µM.

For `CC(=O)O[C@H]1C[C@@]2(C)[C@@H](C[C@@H](O)[C@H]3[C@@]4(C)CC[C@@H](O)[C@@H](C)[C@@H]4CC[C@@]32C)/C1=C(\CCC=C(C)C)C(=O)O`, the IC50 is > 5 µM.

Regarding `O=C(Nc1[nH]c(=O)ncc1F)c1ccccc1`, the IC50 was > 5 µM.

Turning to `NC(=O)c1[nH]c2ccc(S(N)(=O)=O)cc2c1-c1ccccc1`, the IC50 is > 5 µM.

As to `CCc1cc(CCC(=O)Nc2ccccc2O)c(=O)[nH]c1C`, the concentration for half-maximal inhibition (IC50) is > 5 µM.

Turning to `CC(C)c1cc2c(cc1S(=O)(=O)O)[C@@]1(C)CCC[C@@](C)(C(=O)O)[C@@H]1CC2`, the IC50 is > 5 µM.

As to `CCNC(=O)Nc1cc(-c2ccccc2)c(-c2cncc(C(=O)O)c2)cn1`, the IC50 is > 5 µM.

As for `O=C1NC(=S)N/C1=C\c1cc(Br)cc(Br)c1O`, the IC50 was > 5 µM.

In the case of `O=S(=O)(NCB(O)O)c1cc2c(Cl)ccc(Cl)c2s1`, the IC50 is > 5 µM.

On to `CCCC(=O)OCCc1ccccc1`, for which the IC50 is > 5 µM.

With `O=C(O)CCNC(=O)c1ccccc1`, the IC50 is > 5 µM.

Turning to `CC(C)(C)c1ccc(C(=O)NC(=O)N2CCCc3ccccc32)cc1`, the IC50 was > 5 µM.

For `O=C(Cn1cnc2ccccc2c1=O)Nc1ccccc1`, the IC50 was > 5 µM.

Turning to `CC[C@H](CO)Nc1nc(NCc2ccccc2)c2ncn(C(C)C)c2n1`, the IC50 was > 5 µM.

With `O=C(c1cc(O)nc2ccccc12)N1CCN(c2ccccc2)CC1`, the IC50 is > 5 µM.

On to `O=C(NCc1cccc2ccccc12)c1cccs1`, for which the IC50 was > 5 µM.

Regarding `O=C(O)c1ccccc1Sc1ncnc2sc3c(c12)CCC3`, the IC50 is > 5 µM.

With `Nc1nc(O)c2ncn(COC(CO)CO)c2n1`, the IC50 is > 5 µM.

As to `NC(=O)[C@@H]1CC[C@@H]2CN1C(=O)N2OS(=O)(=O)O`, the IC50 is > 5 µM.

`NNC(=O)c1ccncc1`: the IC50 was > 5 µM.

On to `C[C@@H](c1nc(-c2ccc(C#N)cc2)cs1)[C@](O)(Cn1cncn1)c1ccc(F)cc1F`, for which the IC50 was > 5 µM.

Regarding `O=c1oc2ccc(Br)cc2cc1CSc1ncc[nH]1`, the IC50 was > 5 µM.

For `CC(=O)Nc1cc(NS(=O)(=O)c2ccc(Cl)cc2)cc2c(Cl)n[nH]c12`, the IC50 was > 5 µM.
